Laboratory results published in patent publication US6727264B1 (Synaptic Pharmaceutical Corporation, priority 2001, dated 2004).

biological target: rat MCH-1 (Rattus norvegicus, UniProt P97639); experiment: Radioligand binding assay at cloned rat MCH1 receptor ([3H] Compound A); design: host or cells: Peak rapid 293 (Peakr293) cells, transient calcium phosphate transfection, membranes; conditions: cloned rat MCH1 receptor, membranes from Peakr293 cells, 0.08 nM [3H] Compound A; read-out: Ki (nM) rMCH1
Sequence (P97639 whole entry): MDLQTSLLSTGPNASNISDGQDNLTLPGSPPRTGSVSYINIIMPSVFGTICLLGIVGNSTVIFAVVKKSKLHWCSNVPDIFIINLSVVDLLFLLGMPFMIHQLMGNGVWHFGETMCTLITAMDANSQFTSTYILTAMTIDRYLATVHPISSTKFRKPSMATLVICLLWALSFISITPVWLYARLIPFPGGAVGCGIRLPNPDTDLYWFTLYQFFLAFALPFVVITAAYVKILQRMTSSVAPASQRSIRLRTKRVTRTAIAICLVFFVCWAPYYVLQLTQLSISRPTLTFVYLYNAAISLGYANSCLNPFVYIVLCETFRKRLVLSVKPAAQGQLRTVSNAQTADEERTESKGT

In order of falling Ki:
1. CC(=O)c1ccccc1O[C@H](CN1CCC(c2cccc(NC(=O)C(C)C)c2)CC1)c1ccccc1 [Example 334]  603 nM
2. Cc1nc(-c2ccccc2)ncc1CN1CCC(c2cccc(NC(=O)C(C)C)c2)CC1 [Example 231]  596 nM
3. CC(C)C(=O)Nc1cccc(C2CCN(C[C@@H](C)COc3cccc(Cl)c3)CC2)c1 [Example 373]  428 nM
4. CC(C)C(=O)Nc1cccc(C2CCN(CCCC(Oc3ccc(Cl)cc3)c3ccc(Cl)cc3)CC2)c1 (stereo not shown) [Example 385]  325 nM
5. CC(=O)c1cccc(OCCCCCCN2CCC(c3cccc(NC(=O)C(C)C)c3)CC2)c1 [Example 383]  290 nM
6. CC(=O)c1cccc(OCCCN2CCC(c3cccc(NC(=O)C(C)C)c3)CC2)c1 [Example 341]  256 nM
7. CC(=O)c1cccc(OCCCN2CCC(c3cccc(NC(=O)C4CC4)c3)CC2)c1 [Example 342]  183 nM
8. CC(C)C(=O)Nc1cccc(C2CCN(C[C@H](C)COc3cccc(F)c3)CC2)c1 [Example 360]  163 nM
9. CC(=O)c1cccc(O[C@@H](CCN2CCC(c3cccc(N(C)C(=O)C(C)C)c3)CC2)c2ccccc2)c1 [Example 355]  117 nM
10. COc1ccc(C(CCN2CCC(c3cccc(NC(=O)C(C)C)c3)CC2)Oc2ccccc2)cc1 (stereo not shown) [Example 173, N-(3-{1-[3-(4- METHOXYPHENYL)-3-PHENOXYPROPYL]-4-PIPERIDINYL}PHENYL)-2-METHYLPROPANAMIDE]  112 nM
11. CC(=O)c1cccc(O[C@H](CCN2CCC(c3cccc(N(C)C(=O)C(C)C)c3)CC2)c2ccccc2)c1 [Example 354]  81.6 nM
12. COc1ccc(OC(CCN2CCC(c3cccc(NC(=O)C(C)C)c3)CC2)c2ccc(OC)cc2)cc1 (stereo not shown) [Example 167]  80.4 nM
13. CC(C)C(=O)Nc1cccc(C2CCN(Cc3cccc(Oc4cccc(C(F)(F)F)c4)c3)CC2)c1 [Example 209]  64.8 nM
14. CCCOc1ccc(CN2CCC(c3cccc(NC(=O)C(C)C)c3)CC2)c2ccccc12 [Example 197]  63.1 nM
15. CC(C)C(=O)Nc1cccc(C2CCN(CCCOc3cccc(Br)c3)CC2)c1 [Example 351]  61.8 nM
16. CC(C)C(=O)Nc1cccc(C2CCN(CCC(O)c3ccc4c(c3)CCC4)CC2)c1 (stereo not shown) [Example 163]  58.3 nM
17. CC(C)C(=O)Nc1cccc(C2CCN(Cc3ccc(Oc4ccccc4)nc3)CC2)c1 [Example 224]  48 nM
18. CC(C)C(=O)Nc1cccc(C2CCN(CCCOc3cccc(Cl)c3)CC2)c1 [Example 344]  44.6 nM
19. COc1ccc(Oc2cccc(CN3CCC(c4cccc(NC(=O)C(C)C)c4)CC3)c2)cc1 [Example 212]  43 nM
20. Cc1onc(-c2c(Cl)cccc2Cl)c1C(=O)OCCCN1CCC(c2cccc(NC(=O)C(C)C)c2)CC1 [Example 288, 3-{4-[3-(ISOBUTYRYLAMINO)PHENYL]-1-PIPERIDINYL}PROPYL 3-(2,6-DICHLOROPHENYL)-5-METHYL-4-ISOXAZOLECARBOXYLATE]  30.2 nM
21. CC(C)C(=O)Nc1cccc(C2CCN(CCCCCn3ccc4ccccc43)CC2)c1 [Example 97]  27.3 nM
22. Cc1onc(-c2ccccc2)c1C(=O)OCCCCN1CCC(c2cccc(NC(=O)C(C)C)c2)CC1 [Example 296, 4-{4-[3-(ISOBUTYRYLAMINO)PHENYL]-1-PIPERIDINYL}BUTYL 5-METHYL-3-PHENYL-4-ISOXAZOLECARBOXYLATE]  20 nM
23. CC(=O)c1cccc(O[C@@H](CCN2CCC(c3cccc(NC(=O)C4CC4)c3)CC2)c2ccccc2)c1 [Example 340]  15.6 nM
24. Cc1onc(-c2c(Cl)cccc2Cl)c1C(=O)OCCCCCCN1CCC(c2cccc(NC(=O)C(C)C)c2)CC1 [Example 297, 6-{4-[3-(ISOBUTYRYLAMINO)PHENYL]-1-PIPERIDINYL}HEXYL 3-(2,6-DICHLOROPHENYL)-5-METHYL-4-ISOXAZOLECARBOXYLATE]  11.9 nM
25. CC(C)C(=O)Nc1cccc(C2CCN(CCCCCc3c(-c4ccccc4)[nH]c4ccc(OC(F)(F)F)cc34)CC2)c1 [Example 393]  9.5 nM
26. COc1ccc(OC(CCN2CCC(c3cccc(NC(=O)C(C)C)c3)CC2)c2ccc3c(c2)CCC3)cc1 (stereo not shown) [Example 161]  7.9 nM
27. CC(C)C(=O)Nc1cccc(C2CCN(CCCCCN3C(=O)OCC3c3ccc(F)c(F)c3)CC2)c1 (stereo not shown) [Example 105]  4.6 nM
28. COc1ccc(OC(CCN2CCC(c3cccc(NC(=O)C(C)C)c3)CC2)c2ccc(Br)cc2)cc1 (stereo not shown) [Example 170]  3 nM

same assay, conditions: cloned rat MCH1 receptor; 0.08 nM [3H] Compound A; Peakr293 cell membranes; read-out: Ki (nM) rMCH1

In order of falling Ki:
1. CC(C)C(=O)Nc1cccc(C2CCN(Cc3c[nH]c4cc(F)ccc34)CC2)c1 [Example 470]  654 nM
2. CC(C)C(=O)Nc1cccc(C2CCN(Cc3cccc4c3ccn4-c3ccccc3Cl)CC2)c1 [Example 877]  245 nM
3. CC(C)C(=O)Nc1cccc(C2CCN(CCCCCCC(O)c3ccccc3F)CC2)c1 (stereo not shown) [Example 812]  245 nM
4. CC(C)C(=O)Nc1cccc(C2CCN(CCCCC(=O)N3C(=O)OC[C@@H]3c3ccc(F)c(F)c3)CC2)c1 [Example 575]  193 nM
5. CC(C)C(=O)Nc1cccc(C2CCN(CCCCCCNC(=O)c3ccc4ccccc4c3)CC2)c1 [Example 628]  161 nM
6. CC(C)C(=O)Nc1cccc(C2CCN(CCCc3c(-c4ccccc4Br)n(-c4ccccc4)c4ccccc34)CC2)c1 [Example 784]  121 nM
7. CC(C)C(=O)Nc1cccc(C2CCN(Cc3c(-c4ccccc4N)[nH]c4ccccc34)CC2)c1 [Example 424]  114 nM
8. COc1ccc(S(=O)(=O)NCCCN2CCC(c3cccc(NC(=O)C(C)C)c3)CC2)cc1OC [Example 637]  106 nM
9. CC(C)C(=O)Nc1cccc(C2CCN(CCCC(=O)c3ccc(C(C)C)cc3)CC2)c1 [Example 943]  102 nM
10. CC(C)C(=O)Nc1cccc(C2CCN(CC[C@H](NC(=O)Nc3ccccc3)c3ccccc3)CC2)c1 [Example 605]  94.5 nM
11. CC(C)C(=O)Nc1cccc(C2CCN(Cc3cccc4c3ccn4-c3cccc(C(F)(F)F)c3)CC2)c1 [Example 861]  94.1 nM
12. CC(C)C(=O)Nc1cccc(C2CCN(CCCc3c(-c4ccc(Br)cc4)n(-c4ccccc4)c4ccccc34)CC2)c1 [Example 760]  92.3 nM
13. CC(C)C(=O)Nc1cccc(C2CCN(CCCNC(=O)Nc3ccc(Cl)c(Cl)c3)CC2)c1 [Example 614]  84.8 nM
14. CC(C)C(=O)Nc1cccc(C2CCN(CC[C@H](NC(=O)Nc3ccc(Cl)c(Cl)c3)c3ccccc3)CC2)c1 [Example 611]  65.1 nM
15. CC(C)C(=O)Nc1cccc(C2CCN(CCCc3c(-c4ccc(C(F)(F)F)cc4)[nH]c4ccc(OC(F)(F)F)cc34)CC2)c1 [Example 683]  54.2 nM
16. O=C(Nc1cccc(C2CCN(CCCSc3ccccc3)CC2)c1)C1CC1 [Example 580]  54 nM
17. CC(C)C(=O)Nc1cccc(C2CCN(CCCCC(=O)c3ccccc3Br)CC2)c1 [Example 677]  52.3 nM
18. CC(C)C(=O)Nc1cccc(C2CCN(CCCCC(=O)c3ccc(C(F)(F)F)cc3)CC2)c1 [Example 674]  39.6 nM
19. CC(C)C(=O)Nc1cccc(C2CCN(CCCCCC(O)c3ccc(F)cc3)CC2)c1 (stereo not shown) [Example 817]  34.9 nM
20. Cc1ccc(C(=O)CCCN2CCC(c3cccc(NC(=O)C(C)C)c3)CC2)cc1 [Example 945]  31.2 nM
21. CC(C)C(=O)Nc1cccc(C2CCN(Cc3cn(-c4cccnc4)c4ccccc34)CC2)c1 [Example 500]  29.4 nM
22. COc1ccc(OC(CCCCN2CCC(c3cccc(NC(=O)C(C)C)c3)CC2)c2ccc(F)cc2)cc1 (stereo not shown) [Example 918]  29.3 nM
23. Cc1onc(-c2ccccc2Cl)c1C(=O)NCCCCCN1CCC(c2cccc(NC(=O)C(C)C)c2)CC1 [Example 681]  23.9 nM
24. Cc1cccc2c(CCCN3CCC(c4cccc(NC(=O)C(C)C)c4)CC3)c(-c3ccc(C(F)(F)F)cc3)[nH]c12 [Example 687]  20.6 nM
25. CC(C)C(=O)Nc1cccc(C2CCN(CCCCC(=O)c3cccc(I)c3)CC2)c1 [Example 672]  19.7 nM
26. CC(C)C(=O)Nc1cccc(C2CCN(CCCCC(Oc3cc(C(F)(F)F)ccc3F)c3ccc(F)cc3)CC2)c1 (stereo not shown) [Example 935]  19.7 nM
27. CC(C)C(=O)Nc1cccc(C2CCN(CCCc3c(-c4cccc(I)c4)[nH]c4c3ccc3ccccc34)CC2)c1 [Example 740]  12.2 nM
28. CC(C)C(=O)Nc1cccc(C2CCN(Cc3ccc4c(ccn4-c4ccc(Cl)cc4)c3)CC2)c1 [Example 838]  11.2 nM
29. CC(C)C(=O)Nc1cccc(C2CCN(CC[C@H](Oc3ccc(Cl)c(Cl)c3)c3ccccc3)CC2)c1 [Example 808]  10.8 nM
30. Cc1cccc(-n2cc(CN3CCC(c4cccc(NC(=O)C(C)C)c4)CC3)c3ccccc32)c1 [Example 441]  10.1 nM
31. CC(C)C(=O)Nc1cccc(C2CCN(CCCc3c(-c4ccccc4Cl)[nH]c4ccc(OC(F)(F)F)cc34)CC2)c1 [Example 731]  9.9 nM
32. CC(C)C(=O)Nc1cccc(C2CCN(Cc3cn(-c4ccccc4)c4cc(C(F)(F)F)ccc34)CC2)c1 [Example 508]  8.5 nM
33. CC(C)C(=O)Nc1cccc(C2CCN(CCCCCC(Oc3cc(C(F)(F)F)ccc3F)c3ccc(F)cc3)CC2)c1 (stereo not shown) [Example 911]  7.6 nM
34. CC(C)C(=O)Nc1cccc(C2CCN(CC[C@H](NC(=O)c3sccc3Cl)c3ccccc3)CC2)c1 [Example 593]  7.6 nM
35. COc1ccc2[nH]c(-c3cccc(Br)c3)c(CCCN3CCC(c4cccc(NC(=O)C(C)C)c4)CC3)c2c1 [Example 765]  6.5 nM
36. CC(C)C(=O)Nc1cccc(C2CCN(CCCCCC(Oc3ccc(Br)cc3)c3ccc(Cl)cc3)CC2)c1 (stereo not shown) [Example 905]  5.9 nM
37. Cc1cccc2c(CCCN3CCC(c4cccc(NC(=O)C(C)C)c4)CC3)c(-c3cccc(F)c3)[nH]c12 [Example 690]  5.2 nM
38. CC(C)C(=O)Nc1cccc(C2CCN(CCCc3c(-c4ccccc4Br)n(C)c4ccccc34)CC2)c1 [Example 794]  4.9 nM
39. CC(=O)c1cccc(OC(CCCCCN2CCC(c3cccc(NC(=O)C(C)C)c3)CC2)c2ccc(F)cc2)c1 (stereo not shown) [Example 908]  3.7 nM
